Assay results published in patent publication US20160074380A1, “Treatment Of Neurodegenerative Diseases With Combination Of Laquinimod And Fingolimod” (TEVA PHARMACEUTICAL INDUSTRIES LTD., priority 2014, published 2016).
Values joined by “and” are separate entries in the source; they are usually repeats but may differ in a detail not shown here. Equal values may be shown once. Marks after values point to notes of the source that are not given here.

Assays:
reactive astrocytes [1] = assay: GM-CSF concentration in conditioned media from reactive astrocytes (cytometry); format: cell-based, mice; settings: LPS+IFNγ
Method: (§1) Mice mixed glial cells were cultured as described by McCarthy et al., 1980. Primary mice glial cells were prepared from the cortical of newborn Swiss mice (1 day). Briefly, meninges and blood vessels of the mice cortex were removed and placed in ice-cold medium of L15 containing 2% of PS and 1% of BSA. Tissues were dissociated with 0.25% trypsin-EDTA at 37° C. for 10 min. Cells were then submitted to a supplementary incubation of 15 min at 37° C. in presence of deoxyribonuclease I (final concentration of 0.5 mg/mL). Cells were then pelleted (5 min at 1200 rpm) and trypsinization was stopped by adding DMEM supplemented with 10% FCS, 1 mM of Na/pyruvate (PanBiotech, ref: P04-43100, batch: 3470914) and 2% PS. Cells suspension was mechanically dissociated and filtered through 40 μm diameter nylon meshes (BD Falcon, Ref: 352340). The cells were collected by centrifugation at 1200 rpm/min for 10 min, re-suspended in culture medium and then plated in culture flasks (Dutscher, ref: 690175). Cells were seeded at a density of 1.25×10^5 cells/cm2 and cultured in 5% CO2 at 37° C. Medium was changed three times per week.
(§2) Purification of astrocytes cells was done as described by Kim et al., 2006. After 14 days, the flasks were shaken on a rotary shaker at 200 rpm for 3 h. The resulting cell suspension rich in microglia was removed. Cells remaining in the flasks from which microglia had been harvested correspond to astrocytes at a purity of about 90%. Astrocytes were cultured in DMEM supplemented with 10% FCS, 1 mM of Na/pyruvate and 2% at 5% CO2 and 37° C. in flasks of 25 cm2.
(§3) When reaching confluence, primary astroglial cells were first incubated for 2 hours with Fingolimod (1 nM, 10 nM) or Laquinimod (1 nM, 10 nM, 100 nM, 1 μM, 10 μM) alone or in co-incubation or control medium.
(§4) At the end of 2 hours treatment with test compounds, astrocyte culture was activated with serum-free DMEM containing LPS (100 ng/mL; Sigma, Serotype 026:B6, ref: L2654; batch: 123M4052V) and IFNγ (10 ng/mL; Peprotech; ref: 315-05; batch: 061398 L0513) for 6 hours (Kim and Lee, 2013; Shu et al., 2014; Gresa-Arribas et al., 2012) in absence or presence of test compounds.
(§5) To obtain LPS/INFγ free conditioned media (CM), after 6 hours, cells were washed twice with DMEM and medium was replaced with DMEM supplemented with B27 (2%), L-glutamine (2 mM), PS solution (2%). LCM was collected 24 hrs after. For control, cells were incubated with medium not containing LPS/INFγ. […]

reactive astrocytes [2] = assay: TNFα concentration in conditioned media from reactive astrocytes (cytometry); format: cell-based, mice
Method: as §1, §2, §3, §4, §5

reactive astrocytes [3] = assay: CCL7 release in conditioned media from reactive astrocytes (ELISA); format: cell-based, mice; settings: LPS+IFNγ
Method: as §1, §2, §3, §4, §5

[4] = test system: astrocytic and microglial activation and acute axonal damage; settings: cited from earlier work; for demyelination, astrocytic and microglial activation: Kim, 2011
cortical neurons = assay: Cortical neuron survival after 72 h with conditioned media from reactive astrocytes; format: cell-based, mice; settings: conditioned media 72 h; for % cell survival: % of control
Method: Mice cortical neurons were cultured as described by Singer et al., 1999. Briefly pregnant female mice of 13 days gestation were killed by cervical dislocation (Mice Swiss; Janvier Lab). The foetuses were removed from the uterus. The cortexes were removed and placed in ice-cold medium of Leibovitz (L15, Panbiotech, ref: P04-27055, batch: 9310614) containing 2% of Penicillin 10.000 U/ml and Streptomycin 10 mg/ml (PS, Panbiotech, ref: P06-07100, batch: 8460514) and 1% of Bovine Serum Albumin (BSA, Panbiotech, Ref: P06-1391100, batch: H140603). Cortexes were dissociated by trypsin-EDTA (Panbiotech, Ref: P10-023100, batch: 3330914) for 20 min at 37° C. The reaction was stopped by the addition of Dulbecco's modified Eagle's Medium (DMEM, Panbiotech, Ref P04-03600, batch: 1300714) containing DNasel grade II (0.1 mg/ml, Panbiotech, ref: P60-37780100, batch: H140508) and 10% of Foetal Calf Serum (FCS, Invitrogen, ref: 10270-098, batch: 4103912K). Cells were then mechanically dissociated by 3 serial passages through a 10 ml pipette. Cells were then centrifuged at 515×g for 10 min at 4° C. The supernatant was discarded and the pellet of cells was re-suspended in a defined culture medium consisting of Neurobasal (Nb, Invitrogen, ref: 21103, batch: 1673148) supplemented with B27 (2%, Invitrogen, ref: 17504, batch: 1672731), L-glutamine (2 mM, Panbiotech, ref: P04-80100, batch: 6620314), 2% of PS solution and 10 ng/ml of Brain-derived neurotrophic factor (BDNF, PanBiotech, Ref: CB-1115002, Batch: 121027). Viable cells were counted in a Neubauer cytometer using the trypan blue exclusion test. The cells were seeded at a density of 30 000 cells/well in 96 well-plates pre-coated with poly-D-lysine (Greiner ref: 655930, batch: E140305F) and were cultured at +37° C. in a humidified air (95%)/CO2 (5%) atmosphere.
as §1, §2, §3
as §4, with “compounds. […]” for “compounds.”

reactive astrocytes [5] = assay: NO release in conditioned media from reactive astrocytes (ELISA); format: cell-based, mice; settings: LPS+IFNγ
Method: as §1, §2, §3, §4, §5

[6] = Mus musculus, Astrocyte, 1 nM, read-out: % inhibition of GM-CSF release
[7] = Mus musculus, Astrocyte, 10 nM, read-out: % inhibition of GM-CSF release
[8] = Mus musculus, Astrocyte, 1 nM, LPS+IFNγ, read-out: % inhibition of TNFα release
[9] = Mus musculus, Astrocyte, 10 nM, LPS+IFNγ, read-out: % inhibition of TNFα release
[10] = Mus musculus, Astrocyte, 100 nM

SMILES: CCCCCCCCc1ccc(CCC(N)(CO)CO)cc1 [Fingolimod]
- GM-CSF content (reactive astrocytes [1]; 1 nM): 204.09 pg/mL
- GM-CSF content (reactive astrocytes [1]; 10 nM): 147.56 pg/mL
- GM-CSF release (reactive astrocytes [1]; 10 nM): 148 pg/mL
- inhibition at 0.001 µM (reactive astrocytes [1]; [6]): 16%
- inhibition at 0.01 µM (reactive astrocytes [1]; [7]): 39.2%
- effect on TNFα release (reactive astrocytes [2]; 1 nM and 10 nM): didn't show any significant effect
- TNFa content (reactive astrocytes [2]; 1 nM, LPS+IFNγ): 3170.03 pg/mL
- TNFa content (reactive astrocytes [2]; 10 nM, LPS+IFNγ): 3053.66 pg/mL
- inhibition at 0.001 µM (reactive astrocytes [2]; [8]): 3.4%
- inhibition at 0.01 µM (reactive astrocytes [2]; [9]): 6.9%
- CCL-7 content (reactive astrocytes [3]; 1 nM): 24.396 pg/mL
- inhibition at 0.001 µM (reactive astrocytes [3]; Mus musculus, Astrocyte, 1 nM): 43.7%
- inhibition at 0.01 µM (reactive astrocytes [3]; Mus musculus, Astrocyte, 10 nM): 59.9%
- demyelination, astrocytic and microglial activation [4]: partial response
- % cell survival (cortical neurons; 1 nM): 80%
- % cell death (cortical neurons; 1 nM): 20%
- % inhibition of cortical neuron cell death (cortical neurons; 1 nM): 41.2%
- % cell survival (cortical neurons; 10 nM): 85%
- % cell death (cortical neurons; 10 nM): 15%
- % inhibition of cortical neuron cell death (cortical neurons; 10 nM): 55.9* %
- NO content (reactive astrocytes [5]; 1 nM): 24.39 pg/mL and 24.396 pg/mL
- NO content (reactive astrocytes [5]; 10 nM): 17.37 pg/mL and 17.371 pg/mL
- inhibition at 0.001 µM (reactive astrocytes [5]; Mus musculus, Astrocyte, 1 nM): 43.7%
- inhibition at 0.01 µM (reactive astrocytes [5]; Mus musculus, Astrocyte, 10 nM): 59.9%

SMILES: CCN(C(=O)c1c(O)c2c(Cl)cccc2n(C)c1=O)c1ccccc1 [Laquinimod]
- GM-CSF content (reactive astrocytes [1]; 1 nM): 207.71 pg/mL
- GM-CSF content (reactive astrocytes [1]; 10 nM): 209.51 pg/mL
- GM-CSF content (reactive astrocytes [1]; 100 nM): 179.39 pg/mL
- GM-CSF content (reactive astrocytes [1]; 1 μM): 154 pg/mL and 154.26 pg/mL
- inhibition at 0.001 µM (reactive astrocytes [1]; [6]): 14.5%
- inhibition at 0.01 µM (reactive astrocytes [1]; [7]): 13.7%
- inhibition at 0.1 µM (reactive astrocytes [1]; Mus musculus, Astrocyte, 100 nM, read-out: % inhibition of GM-CSF release): 26.1%
- inhibition at 1 µM (reactive astrocytes [1]; Mus musculus, Astrocyte, 1 μM, read-out: % inhibition of GM-CSF release): 36.5%
- TNFa content (reactive astrocytes [2]; 1 nM, LPS+IFNγ): 3257.64 pg/mL
- TNFa content (reactive astrocytes [2]; 10 nM, LPS+IFNγ): 2440.81 pg/mL
- TNFa content (reactive astrocytes [2]; 100 nM, LPS+IFNγ): 2464 pg/mL
- TNFa content (reactive astrocytes [2]; 1 μM, LPS+IFNγ): 2769 pg/mL and 2769.46 pg/mL
- inhibition at 0.001 µM (reactive astrocytes [2]; [8]): 0.7%
- inhibition at 0.01 µM (reactive astrocytes [2]; [9]): 25.6%
- inhibition at 0.1 µM (reactive astrocytes [2]; Mus musculus, Astrocyte, 100 nM, LPS+IFNγ, read-out: % inhibition of TNFα release): 24.9%
- inhibition at 1 µM (reactive astrocytes [2]; Mus musculus, Astrocyte, 1 μM, LPS+IFNγ, read-out: % inhibition of TNFα release): 15.6%
- CCL-7 content (reactive astrocytes [3]; 1 nM): 26.447 pg/mL
- CCL-7 content (reactive astrocytes [3]; 10 nM): 21.093 pg/mL
- inhibition at 0.001 µM (reactive astrocytes [3]; Mus musculus, Astrocyte, 1 nM): 39%
- inhibition at 0.01 µM (reactive astrocytes [3]; Mus musculus, Astrocyte, 10 nM): 51.3%
- inhibition at 0.1 µM (reactive astrocytes [3]; [10]): 58.5%
- inhibition at 1 µM (reactive astrocytes [3]; Mus musculus, Astrocyte, 1 μM): 62.8%
- acute axonal damage ([4]; Brück, 2012): reduces it completely
- demyelination, astrocytic and microglial activation [4]: partial response
- % cell survival (cortical neurons; 1 nM): 73%
- % cell death (cortical neurons; 1 nM): 27%
- % inhibition of cortical neuron cell death (cortical neurons; 1 nM): 20.6* %
- % cell survival (cortical neurons; 10 nM): 80%
- % cell death (cortical neurons; 10 nM): 20%
- % inhibition of cortical neuron cell death (cortical neurons; 10 nM): 41.2%
- % cell survival (cortical neurons; 100 nM): 83%
- % cell death (cortical neurons; 100 nM): 17%
- % inhibition of cortical neuron cell death (cortical neurons; 100 nM): 50.0%
- % cell survival (cortical neurons; 1 μM): 92%
- % cell death (cortical neurons; 1 μM): 8%
- % inhibition of cortical neuron cell death (cortical neurons; 1 μM): 76.5%
- NO content (reactive astrocytes [5]; 1 nM): 26.44 pg/mL and 26.447 pg/mL
- NO content (reactive astrocytes [5]; 10 nM): 21.1 pg/mL and 21.093 pg/mL
- NO content (reactive astrocytes [5]; 100 nM): 17.98 pg/mL and 17.983 pg/mL
- NO content (reactive astrocytes [5]; 1 μM): 16.11 pg/mL and 16.111 pg/mL
- inhibition at 0.001 µM (reactive astrocytes [5]; Mus musculus, Astrocyte, 1 nM): 39%
- inhibition at 0.01 µM (reactive astrocytes [5]; Mus musculus, Astrocyte, 10 nM): 51.3%
- inhibition at 0.1 µM (reactive astrocytes [5]; [10]): 58.5%
- inhibition at 1 µM (reactive astrocytes [5]; Mus musculus, Astrocyte, 1 μM): 62.8%
